# Assay results: patent US20220354811A1, “METHODS AND COMPOSITIONS FOR MODULATING MACROPHAGES POLARIZATION” (INSERM (INSTITUT NATIONAL DE LA SANTÉ ET DE LA RECHERCHE …, priority 2019, published 2022)
# Experiments:
# [1] = system: primary human monocytes; experiment: Cell death in CSF-1-treated differentiating monocytes (AnnexinV/DAPI flow cytometry); assay type: cell-based
# Excerpt: FIG. 1. […] (A) Macrophagic differentiation of monocytes from 3 different healthy donors was examined by 3-color flow cytometric analysis. The results are expressed as percentage of CD71/CD163 or CD16/CD163 double positive cells and represent the mean±SD of 3 independent experiments performed in duplicate. (B) Cell death from 3 different healthy donors was examined by flow cytometry analysis. The results are expressed as percentage of AnnexinV/DAPI double positive cells and represent the mean±SD of 3 independent experiments performed in duplicate. n.s. denotes not statistically significant according to a paired student t test. *P<0.05, **P<0.01, ***P<0.001 according to a paired student t test (versus d2).
# To analyze the macrophagic differentiation of monocytes, the cells were washed with ice-cold phosphate buffered saline (PBS, Life Technologies, 14190169), incubated at 4° C. for 10 min in PBS/bovine serum albumin (BSA 0.5%, Dutscher, 871002) with anti-CD16, anti-CD71 and anti-CD163 or isotype controls (Miltenyi and BD Biosciences, catalog numbers were 130-113-396, 130-097-628 and 551374). Finally, the cells were washed and fixed in 2% paraformaldehyde (EMS, 15710). To perform macrophage polarization, purified monocytes were plated at 0.3×10^6 per mL in RPMI 1640 medium with glutamax-I supplemented with 10% (vol/vol) fetal bovine serum plus CSF-1 for 5+2 days to differentiate into M0 macrophages. 20 ng/mL IL-4 (Miltenyi, 130-094-117) was added after 5 days of differentiation for two days to polarize into M2-macrophages. To analyze the macrophage polarization, cells were detached using PBS/EDTA/BSA, washed with PBS, and incubated at 4° C. for 10 min in PBS/bovine serum albumin with anti-CD200R (Biolegend, 329308), anti-CD206 (Miltenyi, 130-100-034) and anti-CD163 (Miltenyi, 130-097-628) or isotype controls. Finally, the cells were washed and fixed in 2% paraformaldehyde (EMS, 15710). Fluorescence was measured with a MACSQuant® Analyzer (Miltenyi, Paris, France). To analyze the cell death, cells were washed with ice-cold PBS and incubated at 4° C. for 15 min in a specific buffer (10 mM HEPES, 150 mM NaCl, 5 mM KCl, 1 mM MgCl2, 1 mM CaCl2) with AnnexinV-FITC (Miltenyi, 130-097-928) and DAPI (Sigma-Aldrich, D9542). Fluorescence was measured with a MACSQuant® Analyzer (Miltenyi, Paris, France). To analyze the ability of macrophages to phagocyte bacteria, we used Vybrant® Phagocytosis Assay Kit according manufacture's instruction (ThermoFisher, V-6694). […] Fluorescence, that indicate the internalization of particles, was measured with a MACSQuant® Analyzers (Miltenyi, France). Trypan blue solution was used to quench the fluorescence from particles that were not internalized. […]
# [2] = system: bleomycin-induced pulmonary fibrosis; experiment: Bleomycin-induced lung fibrosis in mice; assay type: in vivo; conditions: subcutaneous 18 μg/g body weight twice a day for three weeks; bleomycin-treated mice
# Excerpt: FIG. 7. Pharmacologic and genetic inhibition of caspase-8 prevents bleomycin-induced pulmonary fibrosis. (A) Quantification of Sirius Red labeling intensity. […] Each dot or square is an individual mouse. *P<0.05 according to Mann-Whitney test. (B) Quantification of airspace number/mm2 of parenchymal tissue. Results expressed as fold change in treated compared to control mice as in B. *P<0.05 according to Mann-Whitney test. (C) Quantification of Sirius Red labeling intensity. Results expressed as fold change in treated compared to control mice, C8 KO+bleomycin compared to C8 KO as in B. *P<0.05 according to Mann-Whitney test. (D) Quantification of airspace number/mm2 of parenchymal tissue. Results are expressed as fold change in treated compared to untreated wild-type mice, as in panel E. *P<0.05 according to Mann-Whitney test. (E) Cytokines were measured in broncho-alveolar lavage fluid collected from bleomycin-treated wild-type (wt) and LysM-Cre/Caspase-8 flox/flox (C8 KO) mice treated with bleomycin. Results are expressed as fold-changes compared to untreated mice. *P<0.05, **P<0.01 according to Mann-Whitney test. […]
# Procedures were approved by our Institutional Ethical Committee (CEEA 26) and the French Ministry of Research (#9861). […] To quantify airspace number, tissue sections 4-μm stained with Sirius Red were scanned using a NanoZoomer-SQ (Hamamatsu Corporation, Japan). […]
smiles,measurement,setting,value
"C[C@H](NC(=O)C(=O)Nc1ccccc1C(C)(C)C)C(=O)N[C@@H](CC(=O)O)C(=O)COc1c(F)c(F)cc(F)c1F [Emricasan, (S)-3-((S)-2-(2-((2-(tert-Butyl)phenyl)amino)-2-oxoacetamido)propanamido)-4-oxo-5-(2,3,5,6-tetrafluorophenoxy)pentanoic acid]",apoptosis induction in undifferentiated monocytes,[1],did not induce apoptosis
same,DAPI staining,[1]; higher concentrations (3 μM),slightly increased DAPI staining
same,toxicity for primary human monocytes,[1]; low concentrations (up to 2 μM),not toxic
same,Annexin V staining,"[1]; low concentrations, CSF-1, 48 h",failed to induced significant loss of Annexin V staining
same,lung fibrosis intensity (Sirius Red staining intensity and air space),[2],dramatically decreases
